The test has as its target T1, human GPR61 (Homo sapiens, UniProt Q9BZJ8).
T1 construct: expressed in transfected cells; host or cells: CHO-K1, transient (Fugene6)
Kind of test: Functional cAMP assay (HTRF), transiently transfected CHO-K1 cells, wild-type GPR61 (untagged and HiBit-tagged). Set-up: key to cAMP response (Figure 3e source data): nM cAMP per well, from standard curve. The test is classed as cell-based. From the text: The human GPR61 (reference sequence NM_031936.4) cDNA was synthesized and subcloned into pcDNA5/FRT/TO (Thermo Fisher, Pittsburgh, PA). The pcDNA5/FRT/TO/ human GPR61 plasmid was then transfected into the Flp-In™-CHO Cell Line (Thermo Fisher, Pittsburgh, PA) and a doxycycline-inducible clonal cell line was selected (CHO TREx hGPR61 WT). Sequences encoding untagged and HiBit/hemagglutinin (HA)-tagged versions of the wild-type human GPR61 were synthesized and cloned into pcDNA3.1. The HiBit ([…]) and HA ([…]) tags were sequentially included after the N-terminal initiator methionine. Four single amino acid substitutions (N137A, R140A, V288A, N345A) were then introduced in the untagged and tagged human GPR61 constructs using site-specific mutagenesis. The nucleotide sequences of all receptor constructs were confirmed by automated DNA sequencing.
Parental CHO-K1 cells were maintained at 37 °C in a humidified environment (5% CO2) and grown in Dulbecco’s Modified Eagle Medium (DMEM) F-12 media (Gibco, 11320033) supplemented with 10% FBS, 1% Glutamax (Gibco, 35050061) and 100units/ml penicillin and streptomycin (Gibco, 15140122. Cells were dissociated using a cell dissociation solution (Gibco, 13151-014), counted, and resuspended in complete culture media without antibiotics. Cells were then transiently transfected using Fugene6 (Promega) in a 384-well plate format (Corning, 3570). For each well, 7500 cells were transfected with 5 ng of receptor plasmid, 20 ng of carrier DNA (Promega, PAE4881) and 0.075 μl Fugene6 in a final volume of 25 μl. Fugene6 and DNA were separately diluted in Optimem media (Gibco, 31985070) (1.25 μl final volume each). Fugene6 and DNA solutions were then combined and incubated for 15 min at room temperature. The cell containing solution (22.5 μl) was then added and transfection reactions were mixed and transferred to the assay plate. Following 24 h incubation at 37 °C, wells were rinsed once and 25 μl of HiBit assay buffer (Phenol-red free DMEM F-12 media containing 2% FBS) was added per well. Surface and total receptor expression was measured separately by adding 25 μl per well of the extracellular (Promega, PRN2421) and lytic (Promega, PRN3040) assay solutions, respectively. Plates were incubated for 10 min at room temperature on a shaker and luciferase activity was measured using an EnVision plate reader (Perkin Elmer, Chicago, IL). Expression was normalized as percent of the wild-type receptor signal. Statistical comparisons of expression levels observed with WT versus GPR61 mutants were made by one-way analysis of variance with Dunnett’s post hoc test.
A homogeneous Time-Resolved Fluorescence (HTRF) assay (Perkin Elmer, Dynamic2 kit #) was used to assess receptor basal and inverse agonist activity at human GPR61, GPR62, and GPR101. For routine inverse agonist screening frozen CHO TREx human GPR61, GPR62 and GPR101 cells were used. Cells were thawed, resuspended in complete assay media (DMEM F-12, 10% HI FBS, 100 μg/mL Normocin, 700 μg/mL Hygromycin B and 15 μg/mL Blasticidin) containing 1ug/ml doxycycline, plated in white 384 well plates (Corning, 3570) at a density of 750 cells/well (25 μl/ well) and cultured at 37 °C in an incubator overnight. For studies assessing basal and inverse agonist activity at human GPR61 mutants, CHO-K1 cells were transiently transfected using Fugene6, plated in white 384 well plates (7500 cells/well) and grown overnight at 37 °C, as described for receptor expression studies. […]

Values joined by “and” are separate entries in the source; they are usually repeats but may differ in a detail not shown here. Equal values may be shown once. Read-outs that look alike come from different tables or passages of the source.

T1 sequence (Q9BZJ8 whole entry): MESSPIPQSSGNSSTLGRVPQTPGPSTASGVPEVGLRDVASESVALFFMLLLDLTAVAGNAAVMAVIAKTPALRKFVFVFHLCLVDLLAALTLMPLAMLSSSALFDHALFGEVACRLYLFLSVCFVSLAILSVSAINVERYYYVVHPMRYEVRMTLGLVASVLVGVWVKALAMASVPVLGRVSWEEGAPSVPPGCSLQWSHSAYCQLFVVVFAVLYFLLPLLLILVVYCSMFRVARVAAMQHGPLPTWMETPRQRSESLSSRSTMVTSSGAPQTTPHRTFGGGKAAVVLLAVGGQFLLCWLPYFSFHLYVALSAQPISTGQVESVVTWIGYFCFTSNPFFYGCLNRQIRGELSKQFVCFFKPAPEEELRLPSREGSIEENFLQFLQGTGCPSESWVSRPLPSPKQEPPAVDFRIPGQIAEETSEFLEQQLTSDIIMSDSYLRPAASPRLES

As to `CCOc1cc(C)nc(N(CCOC)S(=O)(=O)c2ccc(NCc3c(F)cncc3F)nc2OC)n1` [Compound 1], the IC50 runs as follows: (Fig. 2d, HiBit-tagged WT, read-out: IC50, cAMP assay, Hibit-tagged GPR61) 10 nM; (Fig. 2d, untagged WT, read-out: IC50, cAMP assay, Untagged GPR61) 11 nM; (wild-type GPR61, untagged and HiBit-tagged, read-out: IC50 in the functional cAMP assay) 10 to 11 nM. Besides, the “cAMP response (Figure 3e source data)” value is 1.38 and 1.77 and 1.31 and 1.26 and 1.43 and 2.44 (HiBit WT, concentration -7.5); 2.14 and 2.36 and 1.86 and 2.11 and 3.43 (HiBit WT, concentration -8); 3.60 and 4.23 and 3.00 and 3.19 and 3.38 and 5.40 (HiBit WT, concentration -10); 3.48 and 4.28 and 2.15 and 2.16 and 4.06 and 4.02 (Untagged WT, concentration -8.5); 4.53 and 5.41 and 3.02 and 3.13 and 5.81 and 5.80 (Untagged WT, concentration -9).

Values taken from paper PMC10517971, “An inverse agonist of orphan receptor GPR61 acts by a G protein-competitive allosteric mechanism” (Nature Communications, 2023).
